Assays:
Assay type in all cases: cell-based
[1] = system: A431 cells; assay: In vitro tumor cell proliferation assay (Cell Titer-Glo) in A431 cells; conditions: Homo sapiens, A-431, 72 h, A431 human epidermoid carcinoma overexpressing HER1; 72 hours exposure; read-out: IC50, activities in A431 cell lines
In short: (§1)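 Viability after 72 h drug exposure at 37 °C was read as CellTiter-Glo ATP luminescence, giving IC50. Cells (2.5×10^3/well, RPMI + 10% FBS) were compound-treated one day post-seeding, 0.1% DMSO final: A431 overexpresses HER1, N87 overexpresses HER2 and HER1.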

[2] = system: N87; assay: In vitro tumor cell proliferation assay (Cell Titer-Glo) in N87 cells; conditions: N87 human gastric carcinoma overexpressing HER2 and HER1; 72 hours exposure; read-out: IC50, activities in N87 cell lines
In short: as §1

[3] = system: H1975 cells; assay: In vitro tumor cell proliferation assay (Cell Titer-Glo) in H1975 cells; conditions: NCI-H1975; H1975 human NSCLC expressing mutant HER1 (L858R,T790M); 72 hours exposure; read-out: IC50, activities in H 1975 cell lines
In short: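 After 72 h compound exposure at 37° C (top 10 uM down to 64 pM, 0.1% DMSO), viability of EGFR L858R/T790M-mutant H1975 cells was read as ATP luminescence.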

Row | Structure (SMILES) | IC50 [1] [nM] | IC50 [2] [nM] | IC50 [3] [nM]
1 | CCN(C)C/C=C/C(=O)N1CCc2c(sc3ncnc(Nc4ccc(OCc5ccccn5)c(Cl)c4)c23)C1 [Example 49, N-(3-chloro-4-(pyridin-2-ylmethoxy)phenyl]-7-{(2E)-4-[ethyl(methyl)amino]but-2-enoyl}-5,6,7,8-tetrahydropyrido [4′,3′:4,5]thieno[2,3-d]pyrimidin-4-amine] | 200 to 1000 | < 200 | 200 to 1000
2 | Cc1cccc(Nc2ncnc3sc4c(c23)CCN(C(=O)/C=C/CN(C)C)C4)c1 [Example 177, 7-[(2E)-4-(dimelhylamino)but-2-enoyl]-N-(3-methylphenyl)-5,6,7,8-tetrahydropyrido [4′,3′:4,5]thieno[2,3-d]pyrimidin-4-amine] | 1000 to 10000 | < 200 | 1000 to 10000
3 | CCN(CC)C/C=C/C(=O)N1CCc2c(sc3ncnc(Nc4ccc5c(ccn5Cc5cccc(F)c5)c4)c23)C1 [Example 100, 7-[(2E)-4-(diethylamino)but-2-enoyl]-N-[1-(3-fluorobenzyl)-1H-indol-5-yl]-5,6,7,8-tetrahydropyrido [4′,3′:4,5]thieno[2,3-d]pyrimidin-4-amine] | 200 to 1000 | < 200 | 200 to 1000
4 | CN(C)C/C=C/C(=O)N1CCc2c(sc3ncnc(Nc4ccc(F)cc4F)c23)C1 [Example 162, N-(2,4-difluorophenyl)-7-[(2E)-4-(dimethylamino)but-enoyl]-5,6,7,8-tetrahydropyrido [4′,3′:4,5]thieno[2,3-d]pyrimidin-4-amine] | 200 to 1000 | < 200 | 1000 to 10000
5 | CC(O)CN(C/C=C/C(=O)N1CCc2c(sc3ncnc(Nc4ccc(F)c(Cl)c4)c23)C1)CC(C)O (stereo not drawn) [Example 39, 1,1′-{[(2E)-4-{4-[(3-chloro-4-fluorophenyl)amino]-5,8-dihydropyrido [4′,3′:4,5]thieno[2,3-d]pyrimidin-7(6H)-yl}-4-oxobut-2-en-1-yl]imino}dipropan-2-ol] | 1000 to 10000 | < 200 | 1000 to 10000
6 | CC1CCCN1C/C=C/C(=O)N1CCc2c(sc3ncnc(Nc4ccc(F)c(Cl)c4)c23)C1 (stereo not drawn) [Example 59, N-(3-chloro-4-fluorophenyl)-7-[(2E)-4-(2-methylpyrrolidin-1-yl)but-2-enoyl]-5,6,7,8-tetrahydropyrido [4′,3′:4,5]thieno[2,3-d]pyrimidin-4-amine] | < 200 | < 200 | < 200
7 | O=C(/C=C/CN1CCOCC1)N1CCc2c(sc3ncnc(Nc4ccc(OCc5cnccn5)c(Cl)c4)c23)C1 [Example 80, N-[3-chloro-4-(pyrazin-2-ylmethoxy)phenyl]-7-[(2E)-4-morpholin-4-ylbut-2-enoyl]-5,6,7,8-tetrahydropyrido [4′3′:4,5]thieno[2,3-d]pyrimidin-4-amine] | 1000 to 10000 | < 200 | 1000 to 10000
8 | CCN(C/C=C/C(=O)N1CCc2c(sc3ncnc(Nc4ccc(F)c(Cl)c4)c23)C1)C1CCCCC1 [Example 61, N-(3-chloro-4-fluorophenyl)-7-{(2E)-4-[cyclohexyl(ethyl)amino]but-2-enoyl}-5,6,7,8-tetrahydropyrido [4′,3′:4,5]thieno[2,3-d]pyrimidin-4-amine] | 200 to 1000 | < 200 | 200 to 1000
9 | CCN(CC)C/C=C/C(=O)N1CCc2c(sc3ncnc(Nc4cccc(Br)c4)c23)C1 [Example 197, N-(3-bromophenyl)-7-[(2E)-4-(diethylamino)but-2-enoyl]-5,6,7,8-tetrahydropyrido [4′,3′:4,5]thieno[2,3-d]pyrimidin-4-amine] | < 200 | < 200 | 200 to 1000
10 | CC(C)N(C)C/C=C/C(=O)N1CCc2c(sc3ncnc(Nc4ccc(Cl)c(Cl)c4)c23)C1 [Example 187, N-(3,4-dichlorophenyl)-7-{(2E)-4-[isopropyl(methyl)amino]but-2-enoyl}-5,6,7,8-tetrahydropyrido[4′,3′:4,5]thieno[2,3-d]pyrimidin-4-amine] | 200 to 1000 | < 200 | < 200
11 | CN(C)C/C=C/C(=O)N1CCc2c(sc3ncnc(Nc4ccc(Cl)c(Cl)c4)c23)C1 [Example 165, N-(3,4-dichlorophenyl)-7-{(2E)-4-[dimethylamino]but-2-enoyl}-5,6,7,8-tetrahydropyrido[4′,3′:4,5]thieno[2,3-d]pyrimidin-4-amine] | 200 to 1000 | < 200 | < 200

The remaining lines, values ahead:

Row | IC50 [1] [nM] | IC50 [2] [nM] | IC50 [3] [nM] | Structure (SMILES)
12 | 200 to 1000 | < 200 | 200 to 1000 | CCN(CC)C/C=C/C(=O)N1CCc2c(sc3ncnc(Nc4ccc5c(cnn5Cc5cccc(F)c5)c4)c23)C1 [Example 99, 7-[(2E)-4-(diethylamino)but-2-enoyl]-N-[1-(3-fluorobenzyl)-1H-indazol-5-yl]5,6,7,8-tetrahydropyrido [4′,3′:4,5]thieno[2,3-d]pyrimidin-4-amine]
13 | < 200 | < 200 | 1000 to 10000 | CCN(CC)C/C=C/C(=O)N1CCc2c(sc3ncnc(Nc4ccc(F)c(Cl)c4)c23)C1 [Example 9, N-(3-chloro-4-fluorophenyl)-7-[(2E)-4-(diethylamino)but-2-enoyl]-5,6,7,8-tetrahydropyrido[4′,3′:4,5]thieno[2,3-d]pyrimidin-4-amine]
14 | 200 to 1000 | < 200 | 200 to 1000 | CN(C)C/C=C/C(=O)N1CCc2c(sc3ncnc(Nc4ccc(OCc5cnccn5)c(Cl)c4)c23)C1 [Example 85, N-[3-chloro-4-(pyrazin-2-ylmethoxy)phenyl]-7-[(2E)-4-(dimethylamino)but-2-enoyl]-5,6,7,8-tetrahydropyrido [4′,3′:4,5]thieno[2,3-d]pyrimidin-4-amine]
15 | 200 to 1000 | < 200 | < 200 | CN(C/C=C/C(=O)N1CCc2c(sc3ncnc(Nc4ccc(OCc5ccccn5)c(Cl)c4)c23)C1)C(C)(C)C [Example 65, 7-{(2E)-4-[tert-butyl(methyl)amino]but-2-enoyl}-N-[3-chloro-4-(pyridin-2-ylmethoxy)phenyl]-5,6,7,8-tetrahydropyrido [4′,3′:4,5]thieno[2,3-d]pyrimidin-4-amine]
16 | < 200 | < 200 | < 200 | CN(C)CC/C=C/C(=O)N1CCc2c(sc3ncnc(Nc4ccc(OCc5ccccn5)c(Cl)c4)c23)C1 [Example 150, 1-[4-[3-chloro-4-(pyridin-2-ylmethoxy)-phenylamino]-5,8-dihydro-6H-9-thia-1,3,7-triaza-fluoren-7-yl}-5-dimethylamino-pent-2-en-1-one]
17 | 200 to 1000 | < 200 | 1000 to 10000 | CN1CCN(C/C=C/C(=O)N2CCc3c(sc4ncnc(Nc5ccc(F)c(Cl)c5)c34)C2)CC1 [Example 8, N-(3-chloro-4-fluorophenyl)-7-[(2E)-4-(4-methylpiperazin-1-yl)but-2-enoyl]-5,6,7,8-tetrahydropyrido[4′,3′:4,5]thieno[2,3-d]pyrimidin-4-amine]
18 | 200 to 1000 | < 200 | 200 to 1000 | CCN(CC)C/C=C/C(=O)N1CCc2c(sc3ncnc(Nc4ccc(Cl)c(Cl)c4)c23)C1 [Example 188, N-(3,4-dichlorophenyi)-7-[(2E)-4-(diethylamino)but-2-enoyl]-5,6,7,8-tetrahydropyrido [4′,3′:4,5]thieno[2,3-d]pyrimidin-4-amine]
19 | < 200 | < 200 | < 200 | CN(C)C/C=C/C(=O)N1CCc2c(sc3ncnc(Nc4ccc5c(cnn5Cc5cccc(F)c5)c4)c23)C1 [Example 92, 7-[(2E)-4-(dimethylamino)but-2-enoyl]-N-[1-(3-fluorobenzyl)-1H-indazol-5-yl]-5,6,7,8-tetrahydropyrido [4′,3′:4,5]thieno[2,3-d]pyrimidin-4-amine]
20 | 200 to 1000 | < 200 | 1000 to 10000 | O=C(/C=C/CN1CCOCC1)N1CCc2c(sc3ncnc(Nc4ccc5c(cnn5Cc5ccccc5)c4)c23)C1 [Example 103, N-(1-benzyl-1H-indazol-5-yl)-7-[(2E)-4-morpholin-4-ylbut-2-enoyl]-5,6,7,8-tetrahydropyrido [4′,3′:4,5]thieno[2,3-d]pyrimidin-4-amine]
21 | 200 to 1000 | < 200 | 200 to 1000 | CC1CCCC(C)N1C/C=C/C(=O)N1CCc2c(sc3ncnc(Nc4ccc(F)c(Cl)c4)c23)C1 (stereo not drawn) [Example 60, N-(3-chloro-4-fluorophenyl)-7-[(2E)-4-(2,6-dimethylpiperidin-1-yl)but-2-enoyl]-5,6,7,8-tetrahydropyrido [4′,3′:4,5]thieno[2,3-d]pyrimidin-4-amine]
22 | 200 to 1000 | < 200 | 200 to 1000 | C#Cc1cccc(Nc2ncnc3sc4c(c23)CCN(C(=O)C#CCN(C)C)C4)c1 [Example 133, 7-[4-(dimethylamino)but-2-ynoyl]-N-(3-ethynylphenyl)-5,6,7,8-tetrahydropyrido [4′,3′:4,5]thieno[2,3-d]pyrimidin-4-amine]
23 | 1000 to 10000 | 200 to 5000 | 1000 to 10000 | Cc1ccc(F)cc1Nc1ncnc2sc3c(c12)CCN(C(=O)/C=C/CN(C)C)C3 [Example 166, 7-[(2E)-4-(dimethylamino)but-2-enoyl]-N-(5-fluoro-2-methylphenyl)-5,6,7,8-tetrahydropyrido [4′,3′:4,5]thieno[2,3-d]pyrimidin-4-amine]
24 | 200 to 1000 | < 200 | 200 to 1000 | CN(C/C=C/C(=O)N1CCc2c(sc3ncnc(Nc4ccc(F)c(Cl)c4)c23)C1)C1CCCCC1 [Example 54, N-(3-chloro-4-fluorophenyl)-7-{(2E)-4-[cyclohexyl(methyl)amino]but-2-enoyl}-5,6,7,8-tetrahydropyrido [4′,3′:4,5]thieno[2,3-d]pyrimidin-4-amine]

— patent US8501755B2, “Tetrahydropyridothienopyrimidine compounds and methods of use thereof” (Bayer Intellectual Property GmbH, priority 2006, dated 2013)
